From US12473282B2, “Biphenyl fluorine double bond derivative, preparation method therefor, and pharmaceutical application thereof” (Abbisko Therapeutics Co., Ltd., priority 2020, dated 2025)

Experiments:
[1] = Jurkat reporter gene cellular assay; assay type: cell-based; conditions: Homo sapiens; Jurkat/NF-κB-luc/PD1 + Raji-PD-L1 coculture, OKT3 1 μg/mL, 6 hrs, activation fold; read-out: Cell Activity EC50
Method in brief: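 Jurkat cells stably expressing human PD-1 and NF-κB-luciferase co-cultured with PD-L1-expressing Raji cells (5×10^4 each/well) under OKT3 (1 μg/mL final) with compound. Raji cells preincubated 20 min; luminescence read 6 h after Jurkat addition. EC50 from non-linear regression of fold activation over DMSO.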

[2] = target: interaction between PD-1 and PD-L1 (Homo sapiens (Human), UniProt Q9NZQ7); assay: PD1-PDL1 HTRF binding activity test (Cisbio PD-1/PD-L1 binding assay kit)
Experimental: I. PD1-PDL1 HTRF Binding Activity Test
The effect of compounds of the examples of the present invention on the interaction between PD-1 and PD-L1 was determined by the PD-1/PD-L1 binding assay kit from Cisbio (#64ICP01PEG or 64ICP01PEH). The detailed experimental process was as follows: • 1. Pre-diluted compound solution, 4 μL of Tag1-PD-L1 and 4 μL of Tag2-PD1 were added to each well of a 384-well plate; • 2. After the mixture was incubated at room temperature for 15 min, 5 μL of anti-Tag1-Eu3+ antibody and 5 μL of anti-Tag2-XL665 antibody were then added; • 3. After incubated for 2 hrs at room temperature or overnight at 4° C., plates were read on Envision of Pelkin Elmer; and readings at 665 nm and 620 nm were recorded, and the ratio of the two readings was taken as a reading for each well; • 4. The reading of each well after compound treatment was compared with the reading of DMSO treated wells to obtain the percent inhibition of the compound; • 5. IC50 values of compounds and positive compounds of the examples of the present invention were determined by non-linear regression analysis of percent inhibition at different compound concentrations. II. Jurkat Reporter Gene Cellular Assay

Chain of interaction between PD-1 and PD-L1 (Q9NZQ7 19-238): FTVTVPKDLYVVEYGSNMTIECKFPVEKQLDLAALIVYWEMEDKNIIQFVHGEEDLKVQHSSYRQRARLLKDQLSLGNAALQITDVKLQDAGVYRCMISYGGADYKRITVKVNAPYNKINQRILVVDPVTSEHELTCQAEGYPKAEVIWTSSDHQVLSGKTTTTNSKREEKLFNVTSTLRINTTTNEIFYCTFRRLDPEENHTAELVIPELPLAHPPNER

| Structure (SMILES) | EC50 [1] [µM] | IC50 [2] [µM] |
| --- | --- | --- |
| C[C@@H](O)CN1CCc2c(nc(/C(F)=C/c3cccc(-c4cccc(NC(=O)c5nc6c(n5C)CCN(CCC57CCC(C(=O)O)(CC5)C7)C6)c4Cl)c3Cl)n2C)C1 [Example 7, (R,Z)-4-(2-(2-((2,2′-dichloro-3′-(2-fluoro-2-(5-(2-hydroxypropyl)-1-methyl-4,5,6,7-tetrahydro-1H-imidazo[4,5-c]pyridin-2-yl)vinyl)-[1,1′-biphenyl]-3-yl)carbamoyl)-1-methyl-1,4,6,7-tetrahydro-5H-imidazo[4,5-c]pyridin-5-yl)ethyl)bicyclo[2.2.1]heptane-1-carboxylic acid] | 0.0622 | 0.000419 |
| CC(C)N1CCc2c(nc(/C(F)=C/c3cccc(-c4cccc(NC(=O)c5nc6c(n5C)CCN(CCC57CCC(C(=O)O)(CC5)C7)C6)c4Cl)c3Cl)n2C)C1 [Example 8, (Z)-4-(2-(2-((2,2′-dichloro-3′-(2-fluoro-2-(5-isopropyl-1-methyl-4,5,6,7-tetrahydro-1H-imidazo[4,5-c]pyridin-2-yl)vinyl)-[1,1′-biphenyl]-3-yl)carbamoyl)-1-methyl-1,4,6,7-tetrahydro-5H-imidazo[4,5-c]pyridin-5-yl)ethyl)bicyclo[2.2.1]heptane-1-carboxylic acid] | 0.0975 | 0.000516 |
| COc1cc(/C(F)=C/c2cccc(-c3cccc(NC(=O)c4nc5c(n4C)CCN(CCC46CCC(C(=O)O)(CC4)C6)C5)c3Cl)c2Cl)ncc1CNCCO [Example 16, (Z)-4-(2-(2-((2,2′-dichloro-3′-(2-fluoro-2-(5-(((2-hydroxyethyl)amino)methyl)-4-methoxypyridin-2-yl)vinyl)-[1,1′-biphenyl]-3-yl)carbamoyl)-1-methyl-1,4,6,7-tetrahydro-5H-imidazo[4,5-c]pyridin-5-yl)ethyl)bicyclo[2.2.1]heptane-1-carboxylic acid] | 0.133 | 0.000191 |
| COc1cc(/C(F)=C/c2cccc(-c3cccc(NC(=O)c4nc5c(n4C)CCN(C[C@H]4CC[C@H](C(=O)O)CC4)C5)c3C)c2C)ncc1CNC[C@@H]1CCC(=O)N1 [Example 17, (1R,4R)-4-((2-((3′-((Z)-2-fluoro-2-(4-methoxy-5-(((((S)-5-oxopyrrolidin-2-yl)methyl)amino)methyl)pyridin-2-yl)vinyl)-2,2′-dimethyl-[1,1′-biphenyl]-3-yl)carbamoyl)-1-methyl-1,4,6,7-tetrahydro-5H-imidazo[4,5-c]pyridin-5-yl)methyl)cyclohexane-1-carboxylic acid] | 0.464 | 0.000331 |
| COc1cc(/C(F)=C/c2cccc(-c3cccc(NC(=O)c4nc5c(n4C)CCN(CCC46CCC(C(=O)O)(CC4)C6)C5)c3Cl)c2Cl)ncc1CN1CC(C)(O)C1 [Example 33, (Z)-4-(2-(2-((2,2′-dichloro-3′-(2-fluoro-2-(5-((3-hydroxy-3-methylazetidin-1-yl)methyl)-4-methoxypyridin-2-yl)vinyl)-[1,1′-biphenyl]-3-yl)carbamoyl)-1-methyl-1,4,6,7-tetrahydro-5H-imidazo[4,5-c]pyridin-5-yl)ethyl)bicyclo[2.2.1]heptane-1-carboxylic acid] | 0.0858 | 0.000489 |
| COc1cc(/C(F)=C/c2cccc(-c3cccc(NC(=O)c4nc5c(n4C)CCN(CCC46CCC(C(=O)O)(CC4)C6)C5)c3Cl)c2Cl)ncc1CNC[C@@H]1CCC(=O)N1 [Example 34, (S,Z)-4-(2-(2-((2,2′-dichloro-3′-(2-fluoro-2-(4-methoxy-5-((((5-oxopyrrolidin-2-yl)methyl)amino)methyl)pyridin-2-yl)vinyl)-[1,1′-biphenyl]-3-yl)carbamoyl)-1-methyl-1,4,6,7-tetrahydro-5H-imidazo [4,5-c]pyridin-5-yl)ethyl)bicyclo[2.2.1]heptane-1-carboxylic acid] | 0.0804 | 0.000352 |
| COc1cc(/C(F)=C/c2cccc(-c3cccc(NC(=O)c4nc5c(n4C)CCN(CCC46CCC(C(=O)O)(CC4)C6)C5)c3Cl)c2Cl)ncc1CN[C@@H]1CCOC[C@H]1O [Example 35, 4-(2-(2-((2,2′-dichloro-3′-((Z)-2-fluoro-2-(5-((((3S,4R)-3-hydroxytetrahydro-2H-pyran-4-yl)amino)methyl)-4-methoxypyridin-2-yl)vinyl)-[1,1′-biphenyl]-3-yl)carbamoyl)-1-methyl-1,4,6,7-tetrahydro-5H-imidazo[4,5-c]pyridin-5-yl)ethyl)bicyclo[2.2.1]heptane-1-carboxylic acid] | 0.0931 | 0.000638 |

Next, values leading:

| EC50 [1] [µM] | IC50 [2] [µM] | Structure (SMILES) |
| --- | --- | --- |
| 3.13 | 0.000306 | Cn1c(C(=O)Nc2cccc(-c3cccc(/C=C(\F)c4cc(C5CC5)c(CN5CC(C)(O)C5)cn4)c3Cl)c2Cl)nc2c1CCN(CCC13CCC(C(=O)O)(CC1)C3)C2 [Example 36, (Z)-4-(2-(2-((2,2′-dichloro-3′-(2-(4-cyclopropyl-5-((3-hydroxy-3-methylazetidin-1-yl)methyl)pyridin-2-yl)-2-fluorovinyl)-[1,1′-biphenyl]-3-yl)carbamoyl)-1-methyl-1,4,6,7-tetrahydro-5H-imidazo[4,5-c]pyridin-5-yl)ethyl)bicyclo[2.2.1]heptane-1-carboxylic acid] |
| 0.178 | 0.000202 | COc1cc(/C(F)=C/c2cccc(-c3cccc(NC(=O)c4nc5c(n4C)CCN(CCC46CCC(C(=O)O)(CC4)C6)C5)c3Cl)c2Cl)ncc1CN[C@H](CO)C(=O)O [Example 37, (R,Z)-4-(2-(2-((3′-(2-(5-(((1-carboxy-2-hydroxyethyl)amino)methyl)-4-methoxypyridin-2-yl)-2-fluorovinyl)-2,2′-dichloro-[1,1′-biphenyl]-3-yl)carbamoyl)-1-methyl-1,4,6,7-tetrahydro-5H-imidazo[4,5-c]pyridin-5-yl)ethyl)bicyclo[2.2.1]heptane-1-carboxylic acid] |
| 0.977 | 0.000332 | COc1cc(/C(F)=C/c2cccc(-c3cccc(NC(=O)c4nc5c(n4C)CCN(CCC46CCC(C(=O)O)(CC4)C6)C5)c3Cl)c2Cl)ncc1CNCC(F)F [Example 38, (Z)-4-(2-(2-((2,2′-dichloro-3′-(2-(5-(((2,2-difluoroethyl)amino)methyl)-4-methoxypyridin-2-yl)-2-fluorovinyl)-[1,1′-biphenyl]-3-yl)carbamoyl)-1-methyl-1,4,6,7-tetrahydro-5H-imidazo[4,5-c]pyridin-5-yl)ethyl)bicyclo[2.2.1]heptane-1-carboxylic acid] |
| 0.0647 | 0.000238 | COc1cc(/C(F)=C/c2cccc(-c3cccc(NC(=O)c4nc5c(n4C)CCN(CCC46CCC(C(=O)O)(CC4)C6)C5)c3Cl)c2Cl)ncc1CN1CC[C@@H](O)C1 [Example 39, (R,Z)-4-(2-(2-((2,2′-dichloro-3′-(2-fluoro-2-(5-((3-hydroxypyrrolidin-1-yl)methyl)-4-methoxypyridin-2-yl)vinyl)-[1,1′-biphenyl]-3-yl)carbamoyl)-1-methyl-1,4,6,7-tetrahydro-5H-imidazo[4,5-c]pyridin-5-yl)ethyl)bicyclo[2.2.1]heptane-1-carboxylic acid] |
| 0.179 | 0.00031 | COc1cc(/C(F)=C/c2cccc(-c3cccc(NC(=O)c4nc5c(n4C)CCN(CCC46CCC(C(=O)O)(CC4)C6)C5)c3Cl)c2Cl)ncc1CN[C@H]1CC[C@@H](O)CC1 [Example 40, 4-(2-(2-((2,2′-dichloro-3′-((Z)-2-fluoro-2-(5-((((1S,4S)-4-hydroxycyclohexyl)amino)methyl)-4-methoxypyridin-2-yl)vinyl)-[1,1′-biphenyl]-3-yl)carbamoyl)-1-methyl-1,4,6,7-tetrahydro-5H-imidazo[4,5-c]pyridin-5-yl)ethyl)bicyclo[2.2.1]heptane-1-carboxylic acid] |
| 0.0867 | 0.000249 | COc1cc(/C(F)=C/c2cccc(-c3cccc(NC(=O)c4nc5c(n4C)CCN(CCC46CCC(C(=O)O)(CC4)C6)C5)c3Cl)c2Cl)ncc1CNC(C)C [Example 41, (Z)-4-(2-(2-((2,2′-dichloro-3′-(2-fluoro-2-(5-((isopropylamino)methyl)-4-methoxypyridin-2-yl)vinyl)-[1,1′-biphenyl]-3-yl)carbamoyl)-l-methyl-1,4,6,7-tetrahydro-5H-imidazo[4,5-c]pyridin-5-yl)ethyl) bicyclo[2.2.1]heptane-1-carboxylic acid] |
| 0.0565 |  | COc1cc(/C(F)=C/c2cccc(-c3cccc(NC(=O)c4nc5c(n4C)CCN(CCC46CCC(C(=O)O)(CC4)C6)C5)c3Cl)c2Cl)ncc1CN1CC[C@H](C)C1 [Example 78, (S,Z)-4-(2-(2-((2,2′-dichloro-3′-(2-fluoro-2-(4-methoxy-5-((3-methylpyrrolidin-1-yl)methyl)pyridin-2-yl)vinyl)-[1,1′-biphenyl]-3-yl)carbamoyl)-1-methyl-1,4,6,7-tetrahydro-5H-imidazo[4,5-c]pyridin-5-yl)ethyl)bicyclo[2.2.1]heptane-1-carboxylie acid] |
